Laboratory results as given in patent US8241647B2, “Amphiphilic molecule, molecular assembly comprising the amphiphilic molecule, and use of the molecular assembly” (Waseda University, priority 2007, dated 2012).

How the values were obtained:
[1] = Preparation of liposome from mixed lipid (dispersion in water, high-pressure extrusion); assay type: physicochemical; settings: mixed lipid compound/cholesterol/PEG-Glu2C18 dispersed in water, high-pressure extrusion 0.22 μm
Description: (§1) Compound 7, 8 or 9 (0.177 mmol), cholesterol (0.179 mmol) and PEG-Glu2C18 (1.0 μmol) were dissolved in benzene, and the mixture was freeze-dried to prepare a mixed lipid. 20 mg of this mixed lipid was dispersed in 1 mL of water for injection, and the resultant mixture was stirred for 6 hours. After that, liposome having a particle size of about 240 nm was prepared by means of the high-pressure extrusion method (final pore diameter: 0.22 μm).
as §1, with “Compound 3, 12” for “Compound 7, 8”, “or 13” for “or 9”, “(1.0 mmol)” for “(1.0 μmol)”

[2] = Measurement of zeta potential of liposomes; assay type: physicochemical; settings: liposome compound/cholesterol/PEG-Glu2C18 (5/5/0.03 molar ratio); acetate buffers 20 mM; 37°C
Description: Portions of the prepared liposome ([lipid]=10 mg/ml) were respectively added to acetate buffers with different pHs (7.4, 7, 6, 5, 4) (30 mM) to the final concentration of [lipid]=1 mg/mL, and then the zeta potential at 37° C. was measured. Zetasizer 4 manufactured by Malvern was used. A capillary cell was filled with a liposome-dispersed liquid obtained by dilution to the measurement concentration, and the measurement was performed at 37° C. 3 times.
Portions of the prepared liposome ([lipid]=10 mg/ml) were respectively added to acetate buffers with different pHs (7.4, 7, 6, 5, 4) (20 mM) to the final concentration of [lipid]=1 mg/mL, and then the zeta potential at 37° C. was measured.
Portions of each of the prepared liposomes ([lipid]=10 mg/ml) were respectively added to acetate buffers with different pHs (7.4, 7, 6, 5, 4) (20 mM) to the final concentration of [lipid]=1 mg/mL, and then the zeta potential at 37° C. was measured.

[3] = Degree of fusion with anionic liposome (Example 9); settings: liposome compound/cholesterol/PEG-Glu2C18, 37°C, 30 minutes
Description: In a manner similar to that in Example 2, the degree of fusion of the pH-responsive liposome with respect to the anionic liposome (DOPC/DPPG, 5/1 (molar ratio)) was calculated. The measurement method was as follows. 50 μL of 1 mM anionic liposome and 50 μL of 9 mM (converted to the mixed lipid basis) pH-responsive liposome were added to 1.9 mL of each of acetate buffers with different pHs and allowed to stand at 37° C. 30 minutes later, […] of the mixture was dividedly poured and added to 1.9 mL of HEPES buffer (pH 7.4). The resultant mixture was transferred to a quartz cell and subjected to fluorescence measurement (λex: 460 nm, 530 nm). The measurement was carried out using RF-5300PC manufactured by Shimadzu.

SMILES	liposome formation with the compound as main component [1]	pH at which the zeta potential changed from negative to positive [2]	degree of fusion ([3]; pH 6.5 (maximum))	degree of fusion ([3]; pH 7.4)
CCCCCCCCCCCCCCCCOC(=O)CCC(NC(=O)C(CCCCNC(=O)C(N)CC(=O)O)NC(=O)C(N)CCC(=O)O)C(=O)OCCCCCCCCCCCCCCCC (stereo not shown) [Compound 7]	liposome was formed	about 5.5		
CCCCCCCCCCCCCCCCOC(=O)CCC(NC(=O)C(CCCCNC(=O)C(N)CCC(=O)O)NC(=O)C(N)CC(=O)O)C(=O)OCCCCCCCCCCCCCCCC (stereo not shown) [Compound 8]	liposome was formed	about 4.8		
CCCCCCCCCCCCCCCCOC(=O)CCC(NC(=O)C(CCCCNC(=O)C(N)CC(=O)O)NC(=O)C(N)CC(=O)O)C(=O)OCCCCCCCCCCCCCCCC (stereo not shown) [Compound 9]	aggregated			

Further lines, with some results ahead:

liposome formation with the compound as main component [1]	pH at which the zeta potential changed from negative to positive [2]	SMILES	degree of fusion ([3]; pH 6.5 (maximum))	degree of fusion ([3]; pH 7.4)
poor dispersibility		CCCCCCCCCCCCCCCCCCOC(=O)CCC(NC(=O)C(CCCCNC(=O)C(N)CCC(=O)O)NC(=O)C(N)CCC(=O)O)C(=O)OCCCCCCCCCCCCCCCCCC (stereo not shown) [Compound 13]		
liposome was formed	about 7.0	CCCCCCCCCCCCCCOC(=O)CCC(NC(=O)C(CCCCNC(=O)C(N)CCC(=O)O)NC(=O)C(N)CCC(=O)O)C(=O)OCCCCCCCCCCCCCC (stereo not shown) [Compound 12]	over 65%	about 45%
